Source: patent US20190275058A1, “COMPOSITIONS AND METHODS FOR TREATING ADDICTION OR SUBSTANCE USE DISORDERS” (EMBERA NEUROTHERAPEUTICS, INC., priority 2016, published 2019)
Entries after “also recorded” stand apart in the source; their conditions may differ. Where two headings read alike, the source gives them in different places.

Tests used:
[1] = Phase I single- and multiple-rising dose study: plasma pharmacokinetics; parameters: species or system human; conditions: in vivo; for Tmax / change of half-lives at different doses or with repeated dosing / half-life: human; for half-life: t1/2
Source text: Total daily doses were double these amounts on BID dosing days. Primary outcomes were safety and pharmacokinetics of MET, its active metabolite (metyrapol), and OX. Safety measures included vital signs, ECGs an standard safety labs. Cortisol and other HPA axis parameters were monitored closely throughout the study.
They were not seeking to quit smoking. […] Primary outcomes were safety and pharmacokinetics.

adult male Wistar rats [2] = assay: Intravenous cocaine self-administration under a multiple, alternating schedule of food reinforcement and cocaine self-administration; format: in vivo, rat
Protocol: Adult male Wistar rats were trained under a multiple, alternating schedule of cocaine and food self-administration. This schedule consisted of alternating periods of cocaine access and food reinforcement. In some instances, as described further below, three doses of cocaine (0.125, 0.25, or 0.50 mg/kg/infusion) were tested. Rats were also periodically trained with saline substitution (cocaine extinction) and food extinction during the same session.
More specifically, adult male Wistar rats were implanted with chronic jugular catheters. Following recovery from surgery, the rats were trained to respond under a multiple, alternating schedule of food reinforcement and cocaine self-administration. Food-maintained responding was used to control for the non-specific motor effects of the various treatments. During the food component of the schedule, the stimulus light located above the food response lever was illuminated to indicate the availability of food reinforcement. […] A 25-second timeout followed the delivery of each food pellet. During this timeout, the stimulus light was darkened and responses on the food lever were counted but had no scheduled consequences. Responding on the other (cocaine) lever during the food component also had no scheduled consequences. […] Following 15 minutes of access to food, all stimulus lights in the chamber were darkened for a 1-minute timeout. Following the timeout, the stimulus light above the cocaine response lever was illuminated to indicate the availability of cocaine (0.125, 0.25, or 0.5 mg/kg/infusion). […] A 20-second timeout period followed each infusion. […] After 15 minutes of access to cocaine and a 1-minute timeout, the rats were again allowed 15 minutes access to the food component of the schedule. Access to food and cocaine alternated in this manner every 15 minutes during the two hour behavioral sessions so that each rat was exposed to food and cocaine for four 15-minute periods each. Each behavioral session began with 15 minutes access to either food or cocaine, and this alternated daily. Stable baselines of responding were established when the total number of cocaine and food presentations, as well as the number of presentations during each of the four exposures each session, varied less than 10% for three consecutive sessions. At least three different doses of cocaine (e.g., 0.125, 0.25, and 0.5 mg/kg/infusion) were tested. Rats were first trained to self-administer 0.25 mg/kg/infusion, which was the standard dose of cocaine used. When responding stabilized, the dose was changed to 0.125 or 0.5 mg/kg/infusion as appropriate.
Once stable baselines of responding were obtained, dose-response curves for the various compounds were individually generated for each rat. Rats were treated with each dose at least twice with a minimum of two days of baseline cocaine self-administration interspersed between each test. Each group of rats was tested with only two of the test compounds to minimize potential carryover effects.

adult male Wistar rats [3] = assay: Cue-induced reinstatement of extinguished cocaine seeking; format: in vivo, rat; conditions: for reinstatement of extinguished cocaine seeking: pretreatment, summary of the studies
Source text: Training to self-administer cocaine: In one model, rats were exposed to alternating 15-minute periods of access to cocaine self-administration and food reinforcement. Food was used to control for potential nonspecific, ataxis effects of the drugs and combinations. […] The other preclinical model that has been used is the cue-induced reinstatement of extinguished cocaine seeking model of relapse. In this model, rats are trained to self-administer cocaine and the ability of conditioned cues in the environment to reinstate extinguished responding is assessed and taken as a measure of relapse.
Cue-induced Reinstatement of Extinguished Cocaine Seeking: The experiments described herein were designed to investigate whether or not drug combinations identified as effective in reducing cocaine self-administration would also block the ability of conditioned cues to reinstate extinguished cocaine-seeking behavior. Adult male Wistar rats were implanted with chronic jugular catheters and trained to self-administer cocaine (0.25 mg/kg/infusion) by pressing one of the response levers in the experimental chamber (i.e., the “active” or “cocaine” lever) under a fixed-ratio […] schedule of reinforcement during daily 2-hour sessions conducted 5 days per week. At the start of each session, both levers were extended into the chamber and the stimulus light above the active lever was illuminated to indicate the availability of cocaine. […] A 20-second timeout period followed each infusion. The stimulus light above the active lever and the house light and tone compound stimulus were extinguished during the timeout period, and the light above the active lever was illuminated once the timeout ended. When responding on the active lever varied less than 20% for two consecutive days, the response requirement was increased to FR2. When similar stability was observed under the FR2 schedule or reinforcement, the response requirement was increased to the final ratio of four. The criteria for stable responding under the FR4 schedule of reinforcement was a minimum of 10 days of exposure to this schedule that concluded with at least three consecutive days when responding varied by less than 10%. […] Once stable cocaine self-administration was observed, rats were exposed to extinction; the rats were placed into the behavioral chambers, but responding on the “cocaine” (active) lever produced no programmed consequences. Extinction training continued until responding decreased to less than 20% of baseline self-administration. Then reinstatement testing commended. The rats were placed into the experimental chambers, both response levers were extended into the chamber, and the stimulus light above the “active” lever was illuminated as during self-administration training. […] Responding on the “active” lever during reinstatement testing was taken as, an index of cocaine-seeking behavior. Each experimental group consisted of […].

rats = conditions: pretreatment, literature; cited from earlier work
[4] = Pharmacokinetic interaction between cocaine, metyrapone and oxazepam (plasma concentrations, GCMS); format: in vivo, rat
Protocol: Thirty minutes following the drug combination or vehicle injection, the rats received intravenous injections of cocaine (0.25 mg/kg/infusion) every 2 minutes for 1 hour. After the final injection of cocaine, blood was collected from the catheter for the analysis of cocaine and its metabolites ecgonine methyl ester and benzoylecgonine. […] All drug concentrations were determined using GCMS procedures.

smokers = conditions: smoking cessation therapy; cited from earlier work
male Wistar rats = assay: Forced Swim Test (FST), animal model of depression
[5] = high dose, ip pretreatment, drug alone
[6] = low, ineffective dose, ip pretreatment, drug alone
[7] = pretreatment, summary of the studies

Structure (SMILES): O=C1Nc2ccc(Cl)cc2C(c2ccccc2)=NC1O (centres unmarked) [oxazepam]
- Tmax ([1]; human plasma, 270 mg Metyrapone/12 mg Oxazepam, Day 1, median, n 6, read-out: Tmax): 3.5 h
- Tmax ([1]; human plasma, 270 mg Metyrapone/12 mg Oxazepam, Day 10, median, n 6, read-out: Tmax): 3 h
- Tmax ([1]; human plasma, 540 mg Metyrapone/24 mg Oxazepam, Day 1, median, n 6, read-out: Tmax): 3 h
- Tmax ([1]; human plasma, 540 mg Metyrapone/24 mg Oxazepam, Day 10, median, n 6, read-out: Tmax): 3 h
- Tmax ([1]; human plasma, 720 mg Metyrapone/24 mg Oxazepam, Day 1, median, n 6, read-out: Tmax): 4 h
- Tmax ([1]; human plasma, 720 mg Metyrapone/24 mg Oxazepam, Day 10, median, n 6, read-out: Tmax): 3 h

Structure (SMILES): Cc1nnc2n1-c1ccc(Cl)cc1C(c1ccccc1)=NC2 [alprazolam]
- cocaine self-administration (adult male Wistar rats [2]; [5]): reduced cocaine self-administration
- cocaine self-administration (adult male Wistar rats [2]; [6]): did not significantly affect
- cocaine self-administration (adult male Wistar rats [2]; [7]): decrease cocaine self-administration
- reinstatement of extinguished cocaine seeking (adult male Wistar rats [3]): decrease
- cocaine self-administration (rats): reduced responding maintained by both food and cocaine

Structure (SMILES): COC(=O)[C@H]1[C@@H](OC(=O)c2ccccc2)C[C@@H]2CC[C@H]1N2C [cocaine]
- effect on plasma concentrations of metyrapone or oxazepam ([4]; rats, presence of cocaine): did not affect the plasma concentrations of metyrapone or oxazepam

Structure (SMILES): NCc1cc(=O)[nH]o1 [muscimol]
- cocaine self-administration (adult male Wistar rats [2]; [5]): reduced cocaine self-administration
- cocaine self-administration (adult male Wistar rats [2]; [6]): did not significantly affect

Structure (SMILES): c1cnc2cc3c(cc2n1)[C@@H]1CNC[C@H]3C1 [varenicline]
- one year quit rate (smokers): 22.5%

Structure (SMILES): CC(C)(C(=O)c1cccnc1)c1cccnc1 [metyrapone]
- cocaine self-administration (adult male Wistar rats [2]; [5]): reduced cocaine self-administration
- cocaine self-administration (adult male Wistar rats [2]; [6]): did not significantly affect
- cocaine self-administration (adult male Wistar rats [2]; [7]): decrease cocaine self-administration
- cue-induced reinstatement of extinguished cocaine seeking (adult male Wistar rats [3]; chronic, 50 mg/kg, ip, once per day for 14 days): reduced cocaine seeking to levels seen when only saline was delivered
- reinstatement of extinguished cocaine seeking (adult male Wistar rats [3]): decrease
- influence on plasma concentrations of each other ([4]; rat, in vivo, ip): did not influence plasma concentrations of each other
- change of half-lives at different doses or with repeated dosing [1]: did not change substantially
- Tmax ([1]; Tmax): 1.5 h
- half-life [1]: 2.04 h
- accumulation with repeated dosing [1]: Modest accumulation
- cocaine self-administration (rats): significant dose-related decreases
- immobility time (male Wistar rats; chronic, individual drug, Met50 group): showed a lessening of immobility time
- group means of immobility versus vehicle (tolerance) (male Wistar rats; chronically treated groups, drug alone): equal to or exceeded the vehicle

Structure (SMILES): CC(=O)N1CCN(c2ccc(OCC3COC(Cn4ccnc4)(c4ccc(Cl)cc4Cl)O3)cc2)CC1 (centres unmarked) [ketoconazole]
- cocaine self-administration (adult male Wistar rats [2]; [6]): no effect; also recorded: did not significantly affect
- cocaine self-administration (adult male Wistar rats [2]; [7]): decrease cocaine self-administration
- minimally effective dose that reduced cocaine self-administration by at least 50% without affecting food-maintained responding (adult male Wistar rats [2]; rats): 25 mg/kg
- reinstatement of extinguished cocaine seeking (adult male Wistar rats [3]): decrease
- cocaine self-administration (rats): reduced cocaine self-administration

Structure (SMILES): CC(NC(C)(C)C)C(=O)c1cccc(Cl)c1 (centres unmarked) [bupropion]
- one year quit rate (smokers): 15.5%

Structure (SMILES): CC(C)(c1cccnc1)C(O)c1cccnc1 (centres unmarked) [metyrapol]
- change of half-lives at different doses or with repeated dosing [1]: did not change substantially
- Tmax ([1]; Tmax): 2 h
- half-life [1]: 8.41 h

Structure (SMILES): CCCCN(CC)c1nc(C)nc2c1c(C)cn2-c1c(C)cc(C)cc1C [CP-154,526]
- cocaine self-administration (adult male Wistar rats [2]; [5]): reduced cocaine self-administration
- cocaine self-administration (adult male Wistar rats [2]; [6]): did not significantly affect
- cocaine self-administration (adult male Wistar rats [2]; [7]): decrease cocaine self-administration
- reinstatement of extinguished cocaine seeking (adult male Wistar rats [3]): decrease
